In patent US9884823B2, “Oxime ether acetate compound, preparation method therefor and weeding application thereof” (ZHEJIANG UNIVERSITY OF TECHNOLOGY, priority 2014, dated 2018):
Where two headings read alike, the source gives them in different places.

Experiments:
[1] = tested on: Rape; test: Culture dish method (general screening); type: in vivo; conditions: 100 mg/L, 7 days
From the text: (§3) Culture dish method (general screening): The test targets were radish, cucumber, rape, wheat, sorghum and barnyard grass; the seeds of wheat, sorghum and radish were germinated in advance, and the uniform emerge-germinating seeds were used in the test.

[2] = tested on: Mustard; conditions: 150 g a.i./ha, 30 days, Table 9
[3] = tested on: Wheat; test: Culture dish method (general screening); type: in vivo; conditions: 100 mg/L, 7 days
From the text: as §3

[4] = tested on: Eclipta prostrata; test: Potted plants live body test; type: in vivo; conditions: 150 g a.i./ha, 30 days, Table 9
From the text: (§1) The raw drug which was selected from the compounds in table 1 was weighed using an analytical balance (0.0001 g), and dissolved in DMF containing 1 wt % Tween-80 emulsifier to prepare a mother liquor of raw drug with a mass concentration of 1.0˜5.0%, and then diluted with distilled water, to prepare preparations at desired concentrations according to the ratio of ingredients in Examples 8, 9 and 10.
(§2) The test targets were mustard, small quinoa, Abutilon, amaranthus retroflexus, Eclipta prostrata, crabgrass, dog point. A pot with a diameter of 7.5 cm was used, filled with composite soil (garden soil:nursery matrix, 1:2, v/v) to ¾ of the pot, then the above […] kinds of weeds targets were directly seeded (germination rate ≧85%), covered with soil at a thickness of 0.2 cm. When the weeds grew to 3-leaf stage, pre-emergence soil treatment for weeds planting, and then spraying was performed.

[5] = tested on: Dog point; test: Potted plants live body test; type: in vivo; conditions: 150 g a.i./ha, 30 days, Table 9
From the text: as §1, §2

[6] = tested on: Abutilon; test: Potted plants live body test; type: in vivo; conditions: 150 g a.i./ha, 30 days, Table 9
From the text: as §1, §2

[7] = tested on: Crabgrass; test: Potted plants live body test; type: in vivo; conditions: 150 g a.i./ha, 30 days, Table 9
From the text: as §1, §2

[8] = tested on: amaranthus retroflexus; test: Potted plants live body test; type: in vivo; conditions: 150 g a.i./ha, 30 days, Table 9
From the text: as §1, §2

[9] = tested on: Cucumber; test: Culture dish method (general screening); type: in vivo; conditions: 100 mg/L, 7 days
From the text: as §3

[10] = tested on: Barnyardgrass; test: Culture dish method (general screening); type: in vivo, barnyard grass; conditions: 100 mg/L, 7 days
From the text: as §3

[11] = tested on: Chinese sorghum; test: Culture dish method (general screening); type: in vivo; conditions: 100 mg/L, 7 days
From the text: as §3

[12] = tested on: Radish; test: Culture dish method (general screening); type: in vivo; conditions: 100 mg/L, 7 days
From the text: as §3

[13] = tested on: broadleaf weeds such as mustard, small quinoa, Abutilon, Amaranthus retroflexus and Eclipta prostrate; conditions: 150 g a.i./ha; for herbicidal activity on broadleaf weeds targets: 30 days after administration, Table 9 summary; for activity on the growth of broadleaf weeds: postemergence spraying, 30 days, vs clear water control
From the text: as §1, §2

[14] = tested on: Small quinoa; conditions: 150 g a.i./ha, 30 days, Table 9
From the text: as §1, §2

[15] = tested on: grass weeds such as crabgrass, barnyard grass, dog point; conditions: 150 g a.i./ha; for activity for grass targets such as crabgrass and dog point: 30 days after administration, Table 9 summary; for activity on grass weeds such as crabgrass, dog point: postemergence spraying, 30 days
From the text: as §1, §2

Row | Compound | inhibition rate, Rape Root [1] [%] | inhibition rate, Rape Stem [1] [%] | inhibition rate, Wheat Root [3] [%] | inhibition rate, Wheat Stem [3] [%] | inhibition rate, Cucumber Root [9] [%] | inhibition rate, Cucumber Stem [9] [%] | inhibition rate, Barnyardgrass Root [10] [%] | inhibition rate, Barnyardgrass Stem [10] [%] | inhibition rate, Chinese sorghum Root [11] [%] | inhibition rate, Chinese sorghum Stem [11] [%] | inhibition rate, Radish Root [12] [%] | inhibition rate, Radish Stem [12] [%] | other results
1 | CON=C(C(=O)OC)c1ccccc1COc1cccc(-c2cccc(C)n2)c1 [Compound 85] | 80 | 50 | 60 | 20 | 80 | 30 | 80 | 0 | 80 | 30 | 50 | 50 | efficiency, Mustard ([2]; Postemergence spraying): 30%; efficiency, Mustard ([2]; Pre-emergence soil treatment): 20%; efficiency, Eclipta prostrata ([4]; Postemergence spraying): 50%; efficiency, Eclipta prostrata ([4]; Pre-emergence soil treatment): 0%; efficiency, Dog point ([5]; Postemergence spraying): 0%; efficiency, Dog point ([5]; Pre-emergence soil treatment): 0%; efficiency, Abutilon ([6]; Postemergence spraying): 50%; efficiency, Abutilon ([6]; Pre-emergence soil treatment): 20%; efficiency, Crabgrass ([7]; Postemergence spraying): 0%; efficiency, Crabgrass ([7]; Pre-emergence soil treatment): 0%; efficiency, amaranthus retroflexus ([8]; Postemergence spraying): 0%; efficiency, amaranthus retroflexus ([8]; Pre-emergence soil treatment): 0%; herbicidal activity on broadleaf weeds targets [13]: herbicidal activity; activity on the growth of broadleaf weeds [13]: inhibitory activity; efficiency, Small quinoa ([14]; Postemergence spraying): 0%; efficiency, Small quinoa ([14]; Pre-emergence soil treatment): 0%; activity for grass targets such as crabgrass and dog point [15]: poor activity; activity on grass weeds such as crabgrass, dog point [15]: almost have no activity
2 | CON=C(C(=O)OC)c1ccccc1COc1ccc(-c2ccc(Cl)cn2)cc1 [Compound 27] | 50 | 50 | 50 | 0 | 60 | 0 | 60 | 30 | 50 | 0 | 50 | 20 | efficiency, Mustard ([2]; Postemergence spraying): 80%; efficiency, Mustard ([2]; Pre-emergence soil treatment): 30%; efficiency, Eclipta prostrata ([4]; Postemergence spraying): 80%; efficiency, Eclipta prostrata ([4]; Pre-emergence soil treatment): 0%; efficiency, Dog point ([5]; Postemergence spraying): 0%; efficiency, Dog point ([5]; Pre-emergence soil treatment): 0%; efficiency, Abutilon ([6]; Postemergence spraying): 60%; efficiency, Abutilon ([6]; Pre-emergence soil treatment): 0%; efficiency, Crabgrass ([7]; Postemergence spraying): 0%; efficiency, Crabgrass ([7]; Pre-emergence soil treatment): 0%; efficiency, amaranthus retroflexus ([8]; Postemergence spraying): 80%; efficiency, amaranthus retroflexus ([8]; Pre-emergence soil treatment): 50%; herbicidal activity on broadleaf weeds targets [13]: herbicidal activity; activity on the growth of broadleaf weeds [13]: inhibitory activity; efficiency, Small quinoa ([14]; Postemergence spraying): 60%; efficiency, Small quinoa ([14]; Pre-emergence soil treatment): 25%; activity for grass targets such as crabgrass and dog point [15]: poor activity; activity on grass weeds such as crabgrass, dog point [15]: almost have no activity
3 | CON=C(C(=O)OC)c1ccccc1COc1cccc(-c2nc(Cl)c(Cl)cc2Cl)c1 [Compound 99] | 60 | 30 | 30 | 0 | 70 | 0 | 50 | 0 | 50 | 50 | 60 | 50 | efficiency, Mustard ([2]; Postemergence spraying): 60%; efficiency, Mustard ([2]; Pre-emergence soil treatment): 0%; efficiency, Eclipta prostrata ([4]; Postemergence spraying): 25%; efficiency, Eclipta prostrata ([4]; Pre-emergence soil treatment): 0%; efficiency, Dog point ([5]; Postemergence spraying): 0%; efficiency, Dog point ([5]; Pre-emergence soil treatment): 0%; efficiency, Abutilon ([6]; Postemergence spraying): 20%; efficiency, Abutilon ([6]; Pre-emergence soil treatment): 0%; efficiency, Crabgrass ([7]; Postemergence spraying): 0%; efficiency, Crabgrass ([7]; Pre-emergence soil treatment): 0%; efficiency, amaranthus retroflexus ([8]; Postemergence spraying): 40%; efficiency, amaranthus retroflexus ([8]; Pre-emergence soil treatment): 0%; herbicidal activity on broadleaf weeds targets [13]: herbicidal activity; activity on the growth of broadleaf weeds [13]: inhibitory activity; efficiency, Small quinoa ([14]; Postemergence spraying): 50%; efficiency, Small quinoa ([14]; Pre-emergence soil treatment): 30%; activity for grass targets such as crabgrass and dog point [15]: poor activity; activity on grass weeds such as crabgrass, dog point [15]: almost have no activity
4 | CON=C(C(=O)OC)c1ccccc1COc1cccc(-c2cc(C)ccn2)c1 [Compound 84] | 50 | 0 | 0 | 0 | 30 | 0 | 80 | 0 | 0 | 0 | 0 | 0 | 
5 | CON=C(C(=O)OC)c1ccccc1COc1cccc(-c2ccnc(Cl)c2)c1 [Compound 67] | 50 | 30 | 30 | 0 | 50 | 0 | 50 | 0 | 50 | 50 | 50 | 50 | 
6 | CON=C(C(=O)OC)c1ccccc1COc1cccc(-c2ncc(Br)cc2[N+](=O)[O-])c1 [Compound 104] | 50 | 0 | 0 | 0 | 20 | 0 | 0 | 0 | 0 | 0 | 0 | 0 | 
7 | CON=C(C(=O)OC)c1ccccc1COc1ccc(-c2ccnc(Cl)c2)cc1 [Compound 75] | 0 | 0 | 0 | 0 | 30 | 0 | 30 | 30 | 0 | 0 | 0 | 0 | 
8 | CON=C(C(=O)OC)c1ccccc1COc1ccc(-c2ccccn2)cc1 [Compound 7] | 60 | 30 | 20 | 0 | 30 | 0 | 50 | 20 | 0 | 0 | 20 | 0 | 
9 | CON=C(C(=O)OC)c1ccccc1COc1ccc(-c2ccc(C(F)(F)F)cn2)cc1 [Compound 32] | 80 | 80 | 0 | 0 | 0 | 0 | 0 | 0 | 0 | 0 | 80 | 50 | 
10 | CON=C(C(=O)OC)c1ccccc1COc1cccc(-c2ccccn2)c1 [Compound 4] | 30 | 0 | 0 | 0 | 30 | 0 | 30 | 30 | 0 | 0 | 50 | 30 | 
11 | CON=C(C(=O)OC)c1ccccc1COc1cccc(-c2c(Cl)cncc2Cl)c1 [Compound 110] | 20 | 0 | 0 | 0 | 20 | 0 | 0 | 0 | 0 | 0 | 0 | 0 | 
